Experimental data reported in PubChem BioAssay (NCI).
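A five-concentration, 48-hour dose response in 96-well plates underlies each endpoint, interpolated linearly between surrounding concentrations. TGI: total growth inhibition.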

Key:
Experiment in all cases: growth of human tumour cells (NCI), 48 h
[1] = test system: SF-295 CNS
[2] = test system: UACC-62 melanoma
[3] = test system: A549 NSCLC
[4] = test system: SN12C renal
[5] = test system: SR leukemia
[6] = test system: HOP-62 NSCLC
[7] = test system: UO-31 renal
[8] = test system: NCI-H23 lung
[9] = test system: HL-60(TB) leukemia
[10] = test system: OVCAR-4 ovarian
[11] = test system: MDA-N
[12] = test system: MALME-3M melanoma
[13] = test system: SW-620 colon
[14] = test system: NCI-H226 lung
[15] = test system: OVCAR-8 ovarian
[16] = test system: SK-OV-3 ovarian
[17] = test system: 786-0 renal
[18] = test system: NCI-H522 lung
[19] = test system: DU-145 prostate
[20] = test system: RXF 393 renal
[21] = test system: MCF7 breast
[22] = test system: SK-MEL-5 melanoma
[23] = test system: NCI/ADR-RES ovarian
[24] = test system: A498 renal
[25] = test system: SF-539 CNS
[26] = test system: SNB-75 CNS
[27] = test system: IGROV1 ovarian
[28] = test system: OVCAR-3 ovarian
[29] = test system: SF-268 CNS
[30] = test system: T-47D breast
[31] = test system: NCI-H460 lung
[32] = test system: BT-549 breast
[33] = test system: LOX IMVI melanoma
[34] = test system: PC-3 prostate
[35] = test system: COLO 205 colon
[36] = test system: SK-MEL-2 melanoma
[37] = test system: HT29 colon
[38] = test system: CAKI-1 renal
[39] = test system: SNB-19 CNS
[40] = test system: U251 CNS
[41] = test system: HCT-15 colon
[42] = test system: M14 melanoma
[43] = test system: HCT-116 colon
[44] = test system: UACC-257 melanoma
[45] = test system: MDA-MB-435
[46] = test system: ACHN renal
[47] = test system: MDA-MB-231 breast
[48] = test system: HCC-2998 colon
[49] = test system: MOLT-4 leukemia
[50] = test system: KM12 colon
[51] = test system: CCRF-CEM leukemia
[52] = test system: EKVX NSCLC
[53] = test system: K-562 leukemia
[54] = test system: HS 578T breast
[55] = test system: HOP-92 NSCLC
[56] = test system: TK-10 renal
[57] = test system: OVCAR-5 ovarian
[58] = test system: RPMI-8226 leukemia
[59] = test system: SK-MEL-28 melanoma

## OC1(c2ccccc2)CSc2ncnn21 (stereo unspecified)
[1]
  TGI: > 100 µM
[2]
  TGI: > 100 µM
[3]
  TGI: > 100 µM
[4]
  TGI: > 100 µM
[5]
  TGI: > 100 µM
[6]
  TGI: > 100 µM
[7]
  TGI: > 100 µM
[8]
  TGI: > 100 µM
[9]
  TGI: > 100 µM
[10]
  TGI: > 100 µM
[11]
  TGI: > 100 µM
[12]
  TGI: > 100 µM
[13]
  TGI: > 100 µM
[14]
  TGI: > 100 µM
[15]
  TGI: > 100 µM
[16]
  TGI: > 100 µM
[17]
  TGI: > 100 µM
[18]
  TGI: > 100 µM
[19]
  TGI: > 100 µM
[20]
  TGI: > 100 µM
[21]
  TGI: > 100 µM
[22]
  TGI: > 100 µM
[23]
  TGI: > 100 µM
[24]
  TGI: > 100 µM
[25]
  TGI: > 100 µM
[26]
  TGI: > 100 µM
[27]
  TGI: > 100 µM
[28]
  TGI: > 100 µM
[29]
  TGI: > 100 µM
[30]
  TGI: > 100 µM
[31]
  TGI: > 100 µM
[32]
  TGI: > 100 µM
[33]
  TGI: > 100 µM
[34]
  TGI: > 100 µM
[35]
  TGI: > 100 µM
[36]
  TGI: > 100 µM
[37]
  TGI: > 100 µM
[38]
  TGI: > 100 µM
[39]
  TGI: > 100 µM
[40]
  TGI: > 100 µM
[41]
  TGI: > 100 µM
[42]
  TGI: > 100 µM
[43]
  TGI: > 100 µM
[44]
  TGI: > 100 µM
[45]
  TGI: > 100 µM
[46]
  TGI: > 100 µM
[47]
  TGI: > 100 µM
[48]
  TGI: > 100 µM
[49]
  TGI: > 100 µM
[50]
  TGI: > 100 µM
[51]
  TGI: > 100 µM
[52]
  TGI: > 100 µM
[53]
  TGI: > 100 µM
[54]
  TGI: > 100 µM
[55]
  TGI: > 100 µM
[56]
  TGI: > 100 µM

## Cc1cn(C2CC(Br)C(COC(c3ccccc3)(c3ccccc3)c3ccccc3)O2)c(=O)[nH]c1=O (stereo unspecified)
[1]
  TGI: 21.7 µM
[2]
  TGI: 24.8 µM
[3]
  TGI: 23.8 µM
[4]
  TGI: 27.8 µM
[5]
  TGI: 23.1 µM
[6]
  TGI: 31 µM
[7]
  TGI: 19.5 µM
[8]
  TGI: 20 µM
[9]
  TGI: > 100 µM
[10]
  TGI: 25.8 µM
[11]
  TGI: 28.2 µM
[57]
  TGI: 30.4 µM
[12]
  TGI: 32.4 µM
[13]
  TGI: 28.5 µM
[14]
  TGI: 34.2 µM
[15]
  TGI: 23.2 µM
[17]
  TGI: 27.4 µM
[18]
  TGI: 19.8 µM
[19]
  TGI: 27.7 µM
[20]
  TGI: 23.5 µM
[21]
  TGI: 22.4 µM
[22]
  TGI: 25.5 µM
[23]
  TGI: 28.9 µM
[24]
  TGI: 29.9 µM
[25]
  TGI: 31.6 µM
[26]
  TGI: 24.3 µM
[27]
  TGI: 27.9 µM
[28]
  TGI: 25.2 µM
[29]
  TGI: 28.4 µM
[30]
  TGI: 26.3 µM
[32]
  TGI: 24.4 µM
[33]
  TGI: 24.4 µM
[34]
  TGI: 17.7 µM
[35]
  TGI: 27.1 µM
[36]
  TGI: 28.7 µM
[37]
  TGI: 23.4 µM
[38]
  TGI: 29.2 µM
[39]
  TGI: 29.9 µM
[40]
  TGI: 24.9 µM
[42]
  TGI: 26.7 µM
[43]
  TGI: 20.5 µM
[44]
  TGI: 29.8 µM
[45]
  TGI: 30.1 µM
[58]
  TGI: 20.6 µM
[46]
  TGI: 26.8 µM
[47]
  TGI: 33.5 µM
[59]
  TGI: 30.3 µM
[49]
  TGI: 28.8 µM
[50]
  TGI: 19.4 µM
[51]
  TGI: 24.1 µM
[52]
  TGI: 28.9 µM
[53]
  TGI: > 100 µM
[54]
  TGI: 32.8 µM
[55]
  TGI: 24.6 µM
[56]
  TGI: 28 µM

## COc1ccc(CN=C2N/C(=C\c3ccccc3Cl)C(=O)N2C)cc1
[1]
  TGI: > 100 µM
[2]
  TGI: 37.6 µM
[3]
  TGI: > 100 µM
[4]
  TGI: 39.8 µM
[5]
  TGI: 90 µM
[6]
  TGI: > 100 µM
[9]
  TGI: 57.9 µM
[10]
  TGI: 86.4 µM
[11]
  TGI: 44.5 µM
[57]
  TGI: > 100 µM
[12]
  TGI: > 100 µM
[13]
  TGI: 50.1 µM
[14]
  TGI: > 100 µM
[15]
  TGI: 77.4 µM
[16]
  TGI: > 100 µM
[17]
  TGI: 36.1 µM
[18]
  TGI: 51.1 µM
[19]
  TGI: > 100 µM
[20]
  TGI: > 100 µM
[21]
  TGI: 90.2 µM
[22]
  TGI: 43.2 µM
[23]
  TGI: > 100 µM
[24]
  TGI: 77.9 µM
[25]
  TGI: 72.7 µM
[26]
  TGI: 38.4 µM
[27]
  TGI: 62.6 µM
[28]
  TGI: 52.4 µM
[29]
  TGI: > 100 µM
[30]
  TGI: 48.8 µM
[31]
  TGI: > 100 µM
[32]
  TGI: 94.8 µM
[33]
  TGI: 43 µM
[34]
  TGI: 96.6 µM
[35]
  TGI: 58.8 µM
[36]
  TGI: 42.8 µM
[37]
  TGI: 57.2 µM
[38]
  TGI: > 100 µM
[39]
  TGI: > 100 µM
[40]
  TGI: 40.7 µM
[41]
  TGI: > 100 µM
[42]
  TGI: 36.2 µM
[43]
  TGI: 39.3 µM
[44]
  TGI: > 100 µM
[45]
  TGI: 46.8 µM
[46]
  TGI: > 100 µM
[47]
  TGI: 96.9 µM
[59]
  TGI: > 100 µM
[48]
  TGI: 59.9 µM
[49]
  TGI: > 100 µM
[50]
  TGI: 52.2 µM
[52]
  TGI: > 100 µM
[53]
  TGI: > 100 µM
[54]
  TGI: > 100 µM
[55]
  TGI: 63.4 µM
[56]
  TGI: > 100 µM
